From US20250154686A1, “COMPOUND LIBRARY” (CHUGAI SEIYAKU KABUSHIKI KAISHA, priority 2021, published 2025)

Molecular target: T1, Bcl-2 protein (Recombinant Human Bcl-2 Protein) (Homo sapiens, UniProt P10415)
T1 construct: purchased Novus Biologicals NBP2-34889
Experiment: AS-MS evaluation of binding of the Example 4 mixture library (1200 compounds/well) to Bcl-2, ASMS ratio (%)
Settings: AS-MS, Example 4 mixture library; for ASMS ratio (%) n = 1: Bcl-2, replicate n = 1; for ASMS ratio (%) n = 2: Bcl-2, replicate n = 2
Procedure, shortened: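 Binding is read as an ASMS ratio from reverse-phase LC/MS peak data. Samples: 1200 compounds at 20 nM each with 20 μM Bcl-2, 1 h at 23 °C in the dark, then P-2 SEC and organic-solvent extraction; references lacked protein, with and without SEC.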

T1 sequence (P10415 whole entry): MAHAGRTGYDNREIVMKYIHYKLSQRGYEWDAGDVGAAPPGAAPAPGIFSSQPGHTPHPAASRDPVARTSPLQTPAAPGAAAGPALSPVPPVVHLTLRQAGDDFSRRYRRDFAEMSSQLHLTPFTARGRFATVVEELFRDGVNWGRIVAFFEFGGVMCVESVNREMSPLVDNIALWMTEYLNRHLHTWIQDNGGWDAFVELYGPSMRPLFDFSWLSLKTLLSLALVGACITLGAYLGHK

Row | Structure (SMILES) | ASMS ratio (%) n = 1 | ASMS ratio (%) n = 2
1 | CCOc1cncc(C#Cc2ccccc2C(=O)N2CCN(c3ccc(C(=O)NS(=O)(=O)CCC(F)(F)F)cc3)CC2)c1 [Compound B2N030-01, 4-[4-[2-[2-(5-Ethoxypyridin-3-yl)ethynyl]benzoyl]piperazin-1-yl]-N-(3,3,3-trifluoropropylsulfonyl)benzamide] | 0.0% | 0.0%
2 | CCOc1cncc(C#Cc2cncc(C(=O)N3CCN(c4ccc(C(=O)NS(=O)(=O)CCC(F)(F)F)cc4)CC3)c2)c1 [Compound B2N032-01, 4-[4-[5-[2-(5-Ethoxypyridin-3-yl)ethynyl]pyridine-3-carbonyl]piperazin-1-yl]-N-(3,3,3-trifluoropropylsulfonyl)benzamide] | −0.4% | −1.0%
3 | CCOc1cccc(-c2ccccc2CCC(=O)N2CCN(c3ccc(C(=O)NS(=O)(=O)CCC(F)(F)F)cc3)CC2)c1 [Compound B2N033-01, 4-[4-[3-[2-(3-Ethoxyphenyl)phenyl]propanoyl]piperazin-1-yl]-N-(3,3,3-trifluoropropylsulfonyl)benzamide] | 0.0% | 0.0%
4 | CCOc1cncc(-c2ccccc2CCC(=O)N2CCN(c3ccc(C(=O)NS(=O)(=O)CCC(F)(F)F)cc3)CC2)c1 [Compound B2N034-01, 4-[4-[3-[2-(5-Ethoxypyridin-3-yl)phenyl]propanoyl]piperazin-1-yl]-N-(3,3,3-trifluoropropylsulfonyl)benzamide] | −0.2% | 1.0%
5 | CCOc1cccc(-c2ccccc2CN2CCN(c3ccc(C(=O)NS(=O)(=O)CCC(F)(F)F)cc3)CC2)c1 [Compound B2N045-01, 4-[4-[[2-(3-Ethoxyphenyl)phenyl]methyl]piperazin-1-yl]-N-(3,3,3-trifluoropropylsulfonyl)benzamide] | 0.0% | 0.1%
6 | CCOc1cncc(-c2ccccc2CN2CCN(c3ccc(C(=O)NS(=O)(=O)CCC(F)(F)F)cc3)CC2)c1 [Compound B2N046-01, 4-[4-[[2-(5-Ethoxypyridin-3-yl)phenyl]methyl]piperazin-1-yl]-N-(3,3,3-trifluoropropylsulfonyl)benzamide] | 0.0% | −1.2%
7 | CCOc1cccc(-c2ccc(CN3CCN(c4ccc(C(=O)NS(=O)(=O)CCC(F)(F)F)cc4)CC3)cc2C)c1 [Compound B2N047-01, 4-[4-[[4-(3-Ethoxyphenyl)-3-methylphenyl]methyl]piperazin-1-yl]-N-(3,3,3-trifluoropropylsulfonyl)benzamide] | 0.0% | 0.0%
8 | CCOc1cncc(-c2ccc(CN3CCN(c4ccc(C(=O)NS(=O)(=O)CCC(F)(F)F)cc4)CC3)cc2C)c1 [Compound B2N048-01, 4-[4-[[4-(5-Ethoxypyridin-3-yl)-3-methylphenyl]methyl]piperazin-1-yl]-N-(3,3,3-trifluoropropylsulfonyl)benzamide] | 0.0% | −0.7%
9 | CCOc1cccc(-c2ccc(CN3CCN(c4ccc(C(=O)NS(=O)(=O)CCC(F)(F)F)cc4)CC3)c(CC)c2)c1 [Compound B2N049-01, 4-[4-[[4-(3-Ethoxyphenyl)-2-ethylphenyl]methyl]piperazin-1-yl]-N-(3,3,3-trifluoropropylsulfonyl)benzamide] | 0.0% | 0.0%
10 | CCOc1cncc(-c2ccc(CN3CCN(c4ccc(C(=O)NS(=O)(=O)CCC(F)(F)F)cc4)CC3)c(CC)c2)c1 [Compound B2N050-01] | 0.0% | 
11 | CCOc1cccc(-c2ccc(CN3CCN(c4ccc(C(=O)NS(=O)(=O)CCC(F)(F)F)cc4)CC3)cc2F)c1 [Compound B2N051-01, 4-[4-[[4-(3-Ethoxyphenyl)-3-fluorophenyl]methyl]piperazin-1-yl]-N-(3,3,3-trifluoropropylsulfonyl)benzamide] | 0.0% | 0.0%
12 | CCOc1cncc(-c2ccc(CN3CCN(c4ccc(C(=O)NS(=O)(=O)CCC(F)(F)F)cc4)CC3)cc2F)c1 [Compound B2N052-01] | 0.0% | −0.5%
13 | CCOc1cccc(-c2ccc(CN3CCN(c4ccc(C(=O)NS(=O)(=O)CCC(F)(F)F)cc4)CC3)c(OC)c2)c1 [Compound B2N053-01, 4-[4-[[4-(3-Ethoxyphenyl)-2-methoxyphenyl]methyl]piperazin-1-yl]-N-(3,3,3-trifluoropropylsulfonyl)benzamide] | 0.0% | 1.4%

Now from value to compound:

Row | ASMS ratio (%) n = 1 | ASMS ratio (%) n = 2 | Structure (SMILES)
14 | 0.0% | 0.0% | CCOc1cncc(-c2csc(C(=O)N3CCN(c4ccc(C(=O)NS(=O)(=O)CCC(F)(F)F)cc4)CC3)c2)c1 [Compound B2N024-01, 4-[4-[4-(5-Ethoxypyridin-3-yl)thiophene-2-carbonyl]piperazin-1-yl]-N-(3,3,3-trifluoropropylsulfonyl)benzamide]
15 | 0.0% | 0.0% | CCOc1cccc(-c2ccc(C(=O)N3CCN(c4ccc(C(=O)NS(=O)(=O)CCC(F)(F)F)cc4)CC3)cc2C)c1 [Compound B2N025-01, 4-[4-[4-(3-Ethoxyphenyl)-3-methylbenzoyl]piperazin-1-yl]-N-(3,3,3-trifluoropropylsulfonyl)benzamide]
16 | −1.5% | −0.7% | CCOc1cncc(-c2ccc(C(=O)N3CCN(c4ccc(C(=O)NS(=O)(=O)CCC(F)(F)F)cc4)CC3)cc2C)c1 [Compound B2N026-01, 4-[4-[4-(5-Ethoxypyridin-3-yl)-3-methylbenzoyl]piperazin-1-yl]-N-(3,3,3-trifluoropropylsulfonyl)benzamide]
17 | −0.7% | −0.9% | CCOc1cncc(-c2ccc(C(=O)N3CCN(c4ccc(C(=O)NS(=O)(=O)CCC(F)(F)F)cc4)CC3)cc2F)c1 [Compound B2N028-01, 4-[4-[4-(5-Ethoxypyridin-3-yl)-3-fluorobenzoyl]piperazin-1-yl]-N-(3,3,3-trifluoropropylsulfonyl)benzamide]
18 | 0.0% | 0.0% | CCOc1cccc(C#Cc2cncc(C(=O)N3CCN(c4ccc(C(=O)NS(=O)(=O)CCC(F)(F)F)cc4)CC3)c2)c1 [Compound B2N031-01, 4-[4-[5-[2-(3-Ethoxyphenyl)ethynyl]pyridine-3-carbonyl]piperazin-1-yl]-N-(3,3,3-trifluoropropylsulfonyl)benzamide]
19 | 0.0% | 0.0% | CCOc1cccc(-c2ccc(C(=O)N3CCN(c4ccc(C(=O)NS(=O)(=O)CCC(F)(F)F)cc4)CC3)c3ccccc23)c1 [Compound B2N035-01, 4-[4-[4-(3-Ethoxyphenyl)naphthalene-1-carbonyl]piperazin-1-yl]-N-(3,3,3-trifluoropropylsulfonyl)benzamide]
20 | 0.0% | 0.4% | CCOc1cncc(-c2ccc(C(=O)N3CCN(c4ccc(C(=O)NS(=O)(=O)CCC(F)(F)F)cc4)CC3)c3ccccc23)c1 [Compound B2N036-01, 4-[4-[4-(5-Ethoxypyridin-3-yl)naphthalene-1-carbonyl]piperazin-1-yl]-N-(3,3,3-trifluoropropylsulfonyl)benzamide]
21 | 0.0% | 0.0% | CCOc1cccc(-c2cc(C(=O)N3CCN(c4ccc(C(=O)NS(=O)(=O)CCC(F)(F)F)cc4)CC3)cc(C(C)(C)C)c2)c1 [Compound B2N037-01, 4-[4-[3-tert-Butyl-5-(3-ethoxyphenyl)benzoyl]piperazin-1-yl]-N-(3,3,3-trifluoropropylsulfonyl)benzamide]
22 | 0.0% | 0.0% | CCOc1cncc(-c2cc(C(=O)N3CCN(c4ccc(C(=O)NS(=O)(=O)CCC(F)(F)F)cc4)CC3)cc(C(C)(C)C)c2)c1 [Compound B2N038-01, 4-[4-[3-tert-Butyl-5-(5-ethoxypyridin-3-yl)benzoyl]piperazin-1-yl]-N-(3,3,3-trifluoropropylsulfonyl)benzamide]
23 | 0.0% | 0.0% | CCOc1cncc(-c2cc(C(=O)N3CCN(c4ccc(C(=O)NS(=O)(=O)CCC(F)(F)F)cc4)CC3)cc(C(F)(F)F)c2)c1 [Compound B2N040-01, 4-[4-[3-(5-Ethoxypyridin-3-yl)-5-(trifluoromethyl)benzoyl]piperazin-1-yl]-N-(3,3,3-trifluoropropylsulfonyl)benzamide]
24 | 0.0% | 0.0% | CCOc1cncc(C#Cc2cc(C(=O)N3CCN(c4ccc(C(=O)NS(=O)(=O)CCC(F)(F)F)cc4)CC3)cc(C(F)(F)F)c2)c1 [Compound B2N042-01, 4-[4-[3-[2-(5-Ethoxypyridin-3-yl)ethynyl]-5-(trifluoromethyl)benzoyl]piperazin-1-yl]-N-(3,3,3-trifluoropropylsulfonyl)benzamide]
25 | −1.4% | 0.1% | CCOc1cccc(-c2cnn(-c3cc(C(=O)N4CCN(c5ccc(C(=O)NS(=O)(=O)CCC(F)(F)F)cc5)CC4)cc(C(F)(F)F)c3)c2)c1 [Compound B2N043-01, 4-[4-[3-[4-(3-Ethoxyphenyl)pyrazol-1-yl]-5-(trifluoromethyl)benzoyl]piperazin-1-yl]-N-(3,3,3-trifluoropropylsulfonyl)benzamide]
26 | 0.2% | 1.4% | CCOc1cncc(-c2cnn(-c3cc(C(=O)N4CCN(c5ccc(C(=O)NS(=O)(=O)CCC(F)(F)F)cc5)CC4)cc(C(F)(F)F)c3)c2)c1 [Compound B2N044-01, 4-[4-[3-[4-(5-Ethoxypyridin-3-yl)pyrazol-1-yl]-5-(trifluoromethyl)benzoyl]piperazin-1-yl]-N-(3,3,3-trifluoropropylsulfonyl)benzamide]
